Source: a compilation of properties of binary mixtures (doi:10.1016/j.molliq.2022.120410)

Assay: xn = mol fraction of the nth substance listed
Conditions: 101.3 kPa

CC[NH3+].O=[N+]([O-])[O-] + OCCOCCO
speed of sound (298.1 K, x1 = 0.0488): 1599.6 m/s | speed of sound (298.1 K, x1 = 0.0983): 1614.6 m/s | speed of sound (298.1 K, x1 = 0.197): 1632 m/s | speed of sound (298.1 K, x1 = 0.2961): 1639.9 m/s | speed of sound (298.1 K, x1 = 0.3955): 1644.5 m/s | speed of sound (298.1 K, x1 = 0.4954): 1643.9 m/s | speed of sound (298.1 K, x1 = 0.5955): 1643.2 m/s | speed of sound (298.1 K, x1 = 0.6961): 1641.7 m/s | speed of sound (298.1 K, x1 = 0.797): 1640 m/s | speed of sound (298.1 K, x1 = 0.8983): 1638.6 m/s | speed of sound (308.1 K, x1 = 0.0488): 1576.8 m/s | speed of sound (308.1 K, x1 = 0.0983): 1592 m/s | speed of sound (308.1 K, x1 = 0.197): 1609.6 m/s | speed of sound (308.1 K, x1 = 0.2961): 1619.1 m/s | speed of sound (308.1 K, x1 = 0.3955): 1625.4 m/s | speed of sound (308.1 K, x1 = 0.4954): 1625.6 m/s | speed of sound (308.1 K, x1 = 0.5955): 1626.3 m/s | speed of sound (308.1 K, x1 = 0.6961): 1625.6 m/s | speed of sound (308.1 K, x1 = 0.8983): 1622.8 m/s | speed of sound (308.1 K, x1 = 1): 1624.7 m/s | speed of sound (318.1 K, x1 = 0.0488): 1553.8 m/s | speed of sound (318.1 K, x1 = 0.0983): 1569.5 m/s | speed of sound (318.1 K, x1 = 0.197): 1587.5 m/s | speed of sound (318.1 K, x1 = 0.2961): 1598.3 m/s | speed of sound (318.1 K, x1 = 0.3955): 1605.9 m/s | speed of sound (318.1 K, x1 = 0.4954): 1607.3 m/s | speed of sound (318.1 K, x1 = 0.5955): 1609.1 m/s | speed of sound (318.1 K, x1 = 0.6961): 1609.1 m/s | speed of sound (318.1 K, x1 = 0.797): 1607.8 m/s | speed of sound (318.1 K, x1 = 0.8983): 1607.3 m/s | speed of sound (318.1 K, x1 = 1): 1609.3 m/s

OCCOCCO + CC[NH3+].O=[N+]([O-])[O-]
speed of sound (298.1 K, x2 = 0): 1580.6 m/s | speed of sound (308.1 K, x2 = 0): 1556.6 m/s
